{
  "source": "patent US11684607B2",
  "about": "“Secnidazole for use in the treatment of bacterial vaginosis” (priority 2014, dated 2023)",
  "assay": "Effect of a single 2 g dose of SYM-1219 on the plasma pharmacokinetics of EE2 and NET in healthy female subjects",
  "assay_type": "in vivo, human",
  "conditions": "for AUC(0-t) / AUC(0-inf) / Cmax: female, human, plasma",
  "protocol": "Methods: Fifty-four (54) healthy female subjects, ages 18-65, received EE2/NET alone and in combination, where SYM-1219+EE2/NET were co-administered on Day 1 (Group B1; N=27) or SYM-1219 on Day 1 and EE2/NET on Day 2 (Group B2; N=27). Serial blood samples were drawn to measure plasma concentrations of EE2/NET. […] Safety was evaluated by recording of adverse events, vital signs, ECGs and standard laboratory tests.",
  "key": {"[1]": {"conditions": "Group B1: Period 2 (EE2/NET followed by SYM-1219 2 grams on Day 1) vs Period 1 (EE2/NET alone)"}, "[2]": {"conditions": "Group B1: SYM-1219 2 g and EE2/NET co-administered on Day 1"}, "[3]": {"conditions": "Group B2: Period 2 (SYM-1219 2 grams on Day 1, EE2/NET on Day 2) vs Period 1 (EE2/NET alone)"}},
  "note": "Read-outs that look alike come from different tables or passages of the source.",
  "data": [
    {"smiles": "C#C[C@]1(O)CC[C@H]2[C@@H]3CCc4cc(O)ccc4[C@H]3CC[C@@]21C", "note": "[EE2, ethinyl estradiol]", "values": [
      {"measurement": "EE2 AUC0-t, Geometric LSMean % Ratio (100 * Test/Reference)", "setting": "[1]", "result": 94.26, "unit": "%"},
      {"measurement": "EE2 AUC0-∞, Geometric LSMean % Ratio (100 * Test/Reference)", "setting": "[1]", "result": 105.37, "unit": "%"},
      {"measurement": "EE2 Cmax, Geometric LSMean % Ratio (100 * Test/Reference)", "setting": "[1]", "result": 71.07, "unit": "%"},
      {"measurement": "EE2 Cmax reduction", "setting": "[2]", "result": 29, "unit": "%"},
      {"measurement": "change in EE2 AUC", "setting": "[2]", "result": "no change"},
      {"measurement": "EE2 AUC0-t, Geometric LSMean % Ratio (100 * Test/Reference)", "setting": "[3]", "result": 99.04, "unit": "%"},
      {"measurement": "EE2 AUC0-∞, Geometric LSMean % Ratio (100 * Test/Reference)", "setting": "[3]", "result": 93.32, "unit": "%"},
      {"measurement": "EE2 Cmax, Geometric LSMean % Ratio (100 * Test/Reference)", "setting": "[3]", "result": 104.96, "unit": "%"},
      {"measurement": "EE2 PK alteration", "setting": "Group B2: SYM-1219 2 g on Day 1, EE2/NET on Day 2", "result": "not altered"},
      {"measurement": "AUC(0-t)", "setting": "Group B1 Period 1: EE2/NET alone, read-out: EE2 AUC0-t, Geometric Least Squares (LS) Means", "result": 0.627, "unit": "ng·h/mL"},
      {"measurement": "AUC(0-t)", "setting": "Group B1 Period 1: EE2/NET alone, read-out: EE2 AUC0-t, Mean", "result": 0.644, "unit": "ng·h/mL"},
      {"measurement": "AUC(0-inf)", "setting": "Group B1 Period 1: EE2/NET alone, read-out: EE2 AUC0-∞, Geometric Least Squares (LS) Means", "result": 0.878, "unit": "ng·h/mL"},
      {"measurement": "AUC(0-inf)", "setting": "Group B1 Period 1: EE2/NET alone, read-out: EE2 AUC0-∞, Mean", "result": 0.911, "unit": "ng·h/mL"},
      {"measurement": "Cmax", "setting": "Group B1 Period 1: EE2/NET alone, read-out: EE2 Cmax, Geometric Least Squares (LS) Means", "result": 0.0779, "unit": "ng/mL"},
      {"measurement": "Cmax", "setting": "Group B1 Period 1: EE2/NET alone, read-out: EE2 Cmax, Mean", "result": 0.0806, "unit": "ng/mL"},
      {"measurement": "AUC(0-t)", "setting": "Group B1 Period 2: EE2/NET followed by SYM-1219 2 grams on Day 1, read-out: EE2 AUC0-t, Geometric Least Squares (LS) Means", "result": 0.591, "unit": "ng·h/mL"},
      {"measurement": "AUC(0-t)", "setting": "Group B1 Period 2: EE2/NET followed by SYM-1219 2 grams on Day 1, read-out: EE2 AUC0-t, Mean", "result": 0.616, "unit": "ng·h/mL"},
      {"measurement": "AUC(0-inf)", "setting": "Group B1 Period 2: EE2/NET followed by SYM-1219 2 grams on Day 1, read-out: EE2 AUC0-∞, Geometric Least Squares (LS) Means", "result": 0.925, "unit": "ng·h/mL"},
      {"measurement": "AUC(0-inf)", "setting": "Group B1 Period 2: EE2/NET followed by SYM-1219 2 grams on Day 1, read-out: EE2 AUC0-∞, Mean", "result": 0.954, "unit": "ng·h/mL"},
      {"measurement": "Cmax", "setting": "Group B1 Period 2: EE2/NET followed by SYM-1219 2 grams on Day 1, read-out: EE2 Cmax, Geometric Least Squares (LS) Means", "result": 0.0554, "unit": "ng/mL"},
      {"measurement": "Cmax", "setting": "Group B1 Period 2: EE2/NET followed by SYM-1219 2 grams on Day 1, read-out: EE2 Cmax, Mean", "result": 0.0599, "unit": "ng/mL"},
      {"measurement": "AUC(0-t)", "setting": "Group B2 Period 1: EE2/NET alone, read-out: EE2 AUC0-t, Geometric Least Squares (LS) Means", "result": 0.65, "unit": "ng·h/mL"},
      {"measurement": "AUC(0-t)", "setting": "Group B2 Period 1: EE2/NET alone, read-out: EE2 AUC0-t, Mean", "result": 0.68, "unit": "ng·h/mL"},
      {"measurement": "AUC(0-inf)", "setting": "Group B2 Period 1: EE2/NET alone, read-out: EE2 AUC0-∞, Geometric Least Squares (LS) Means", "result": 0.945, "unit": "ng·h/mL"},
      {"measurement": "AUC(0-inf)", "setting": "Group B2 Period 1: EE2/NET alone, read-out: EE2 AUC0-∞, Mean", "result": 0.995, "unit": "ng·h/mL"},
      {"measurement": "Cmax", "setting": "Group B2 Period 1: EE2/NET alone, read-out: EE2 Cmax, Geometric Least Squares (LS) Means", "result": 0.083, "unit": "ng/mL"},
      {"measurement": "Cmax", "setting": "Group B2 Period 1: EE2/NET alone, read-out: EE2 Cmax, Mean", "result": 0.0891, "unit": "ng/mL"},
      {"measurement": "AUC(0-t)", "setting": "Group B2 Period 2: SYM-1219 2 grams on Day 1, EE2/NET on Day 2, read-out: EE2 AUC0-t, Geometric Least Squares (LS) Means", "result": 0.644, "unit": "ng·h/mL"},
      {"measurement": "AUC(0-t)", "setting": "Group B2 Period 2: SYM-1219 2 grams on Day 1, EE2/NET on Day 2, read-out: EE2 AUC0-t, Mean", "result": 0.669, "unit": "ng·h/mL"},
      {"measurement": "AUC(0-inf)", "setting": "Group B2 Period 2: SYM-1219 2 grams on Day 1, EE2/NET on Day 2, read-out: EE2 AUC0-∞, Geometric Least Squares (LS) Means", "result": 0.882, "unit": "ng·h/mL"},
      {"measurement": "AUC(0-inf)", "setting": "Group B2 Period 2: SYM-1219 2 grams on Day 1, EE2/NET on Day 2, read-out: EE2 AUC0-∞, Mean", "result": 0.937, "unit": "ng·h/mL"},
      {"measurement": "Cmax", "setting": "Group B2 Period 2: SYM-1219 2 grams on Day 1, EE2/NET on Day 2, read-out: EE2 Cmax, Geometric Least Squares (LS) Means", "result": 0.0872, "unit": "ng/mL"},
      {"measurement": "Cmax", "setting": "Group B2 Period 2: SYM-1219 2 grams on Day 1, EE2/NET on Day 2, read-out: EE2 Cmax, Mean", "result": 0.0926, "unit": "ng/mL"}
    ]}
  ]
}
